From ChEMBL document CHEMBL4130638, “Discovery of the Polyamine Conjugate with Benzo[ cd]indol-2(1 H)-one as a Lysosome-Targeted Antimetastatic Agent” (J Med Chem, 2018)
Calls of active or inactive are those of the source. The calls are words filed in the database; no cut-off is given here.

What was measured:
HCT-116 [1] = assay: Induction of apoptosis in human HCT116 cells assessed as necrotic cells at 10 uM after 24 hrs in presence of autophagy inhibitor 3-MA by annexin V-FITC/propidium iodide staining based flow cytometry (reference value: 3.9%); assay type: functional
HCT-116 [2] = assay: Induction of apoptosis in human HCT116 cells after 24 hrs by acridine orange and ethidium bromide staining based high content screening analysis; assay type: functional, cell-based
HCT-116 [3] = assay: Decrease in spermidine level in human HCT116 cells at 2.5 to 10 uM after 24 hrs by G1321A fluorescence detector coupled HPLC analysis; assay type: functional, cell-based
HCT-116 [4] = assay: Downregulation of Bcl2 protein expression in human HCT116 cells up to 10 uM after 24 hrs in presence of autophagy inhibitor 3-MA by Western blot method; assay type: functional, cell-based
HCT-116 [5] = assay: Induction of autophagy in human HCT116 cells at 5 to 20 uM after 24 hrs in presence of pan-caspase inhibitor Z-VAD-FMK by Lyso staining based flow cytometry; assay type: functional, cell-based

In the case of Cl.Cl.Cl.NCCCCNCCCCNCCCCN1C(=O)c2cccc3cccc1c23, the Activity (HCT-116 [1]) is reported as 7.21%, the Activity (HCT-116 [2]) is reported as “Dose-dependent effect” and the Activity (HCT-116 [3]) is reported as “Active”. The Activity (HCT-116 [4]) was “inactive” and the Activity (HCT-116 [5]) was “inactive”.
